Among the test systems are BT-549 breast; CAKI-1 renal; HCC-2998 colon; MDA-MB-231 breast; OVCAR-3 ovarian; DLD-1 colon; DMS 114 small cell lung; DMS 273 small cell lung; HOP-18 NSCLC; KM20L2 colon; LXFL 529 NSCLC; M19-MEL melanoma; SNB-78 CNS; XF 498 CNS; RXF-631 renal.
Assay in all cases: growth of human tumour cells (NCI), 48 h

The structures appear in SMILES notation.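 Values below derive from 48-hour exposures of cells grown in 96-well plates, with endpoints linearly interpolated between the two concentrations bracketing the appropriate inhibition level. Definition used: TGI = concentration required for complete inhibition of growth.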 Bounds are passed on as bounds.

On to `CCOC(=O)c1nc2ccccc2nc1Nc1ccc(OC)cc1`, for which the TGI with BT-549 breast was 73.6 µM; with CAKI-1 renal it was 56.6 µM; in the test on HCC-2998 colon, over 100 µM; in the test with MDA-MB-231 breast it was 51.3 µM; with OVCAR-3 ovarian, 70.4 µM.
On to `CC1(C)OCN(c2ccc(S(N)(=O)=O)cc2)Cn2c1nc1ccccc12`, for which the TGI in the test on DLD-1 colon, in the test with DMS 114 small cell lung, in the test on DMS 273 small cell lung, in the test with HCC-2998 colon, in the test on HOP-18 NSCLC and in the test on KM20L2 colon was over 100 µM each time. In addition, the TGI in the test on LXFL 529 NSCLC, in the test on M19-MEL melanoma, in the test with OVCAR-3 ovarian, in the test on SNB-78 CNS and in the test with XF 498 CNS was over 100 µM in each case.
As for `C[C@@H]1CCC2C(C)(C)C(/C=C\C=O)C3(C)OC213` (stereo partly specified), the TGI in the test with BT-549 breast is over 100 µM; in the test with CAKI-1 renal, over 100 µM; in the test on HCC-2998 colon it was 78.4 µM; in the test with MDA-MB-231 breast, over 100 µM; with OVCAR-3 ovarian, over 100 µM.
In the case of `Nc1ncnc2c1ncn2-c1ccc([N+](=O)[O-])cn1`, the TGI in the test with BT-549 breast, in the test on CAKI-1 renal, in the test on HCC-2998 colon, in the test with MDA-MB-231 breast and with OVCAR-3 ovarian was over 100 µM throughout.
On to `CCOc1ccc(/C=C(\Cl)c2ccc(OC)cc2)cc1`, for which the TGI in the test on DLD-1 colon, in the test on DMS 114 small cell lung, in the test with DMS 273 small cell lung, with HCC-2998 colon, in the test with HOP-18 NSCLC and in the test with KM20L2 colon was over 100 µM in each case. Further, the TGI in the test on LXFL 529 NSCLC, in the test on M19-MEL melanoma, with SNB-78 CNS and with XF 498 CNS was over 100 µM in each case.
Consider `Cc1ccc(NC(=O)CSc2nnc(Cc3ccccc3)o2)cc1`, for which the TGI in the test on CAKI-1 renal, with DLD-1 colon, in the test on DMS 114 small cell lung, with DMS 273 small cell lung, in the test with HCC-2998 colon and in the test with HOP-18 NSCLC was over 100 µM each time. Also, the TGI with KM20L2 colon, in the test with LXFL 529 NSCLC, in the test on M19-MEL melanoma, with OVCAR-3 ovarian and with SNB-78 CNS was over 100 µM in each case.
Take `COC(=O)n1c(C)c(C=O)c2ccc(OC)cc21`: the TGI was 73.2 µM in the test with BT-549 breast; 87.9 µM in the test with CAKI-1 renal; 55.8 µM with HCC-2998 colon; over 100 µM with MDA-MB-231 breast; over 100 µM in the test on OVCAR-3 ovarian.
Regarding `CC12C(=C(C#N)C(=N)N1c1ccc(Cl)c(Cl)c1)C=C(O)CC2SCCS(=O)(=O)O` (stereo unspecified), the TGI with CAKI-1 renal, in the test on DLD-1 colon, in the test on DMS 114 small cell lung, in the test on DMS 273 small cell lung, with HCC-2998 colon and in the test with KM20L2 colon was over 100 µM throughout. Moreover, the TGI in the test with LXFL 529 NSCLC, in the test with M19-MEL melanoma, in the test with OVCAR-3 ovarian and in the test on SNB-78 CNS was over 100 µM in each case.
As for `C[C@@H]1OC2(O)[C@H]3CCCN3S(=O)(=O)CCN2C1=O` (stereo partly specified), the TGI in the test on CAKI-1 renal, in the test with DLD-1 colon, in the test with HCC-2998 colon, in the test on HOP-18 NSCLC, in the test with KM20L2 colon and in the test on LXFL 529 NSCLC was over 100 µM each time. Moreover, the TGI in the test on M19-MEL melanoma, with OVCAR-3 ovarian, with RXF-631 renal and in the test on SNB-78 CNS was over 100 µM throughout.
Turning to `CCCCCCNC(=S)N/N=C(\C)c1ccccn1`, the TGI in the test with BT-549 breast stood at 16.8 µM; in the test on CAKI-1 renal it was 40.4 µM; with HCC-2998 colon it was 20.9 µM; with MDA-MB-231 breast, 14.4 µM; with OVCAR-3 ovarian, 21.8 µM.
The like results for `CCN(CC)c1ccc(C2Nc3ccc4ccccc4c3C3=C2C(=O)CCC3)cc1` (stereo unspecified) were, in that order, over 100 µM, over 100 µM, over 100 µM, 50.8 µM and over 100 µM.
In the same order, the values of `CC(C)[Si]1(C(C)C)OCC2OC(n3c(C(=O)c4ccccc4)cc(=O)[nH]c3=O)CC2O[Si](C(C)C)(C(C)C)O1` (stereo unspecified) are 16.5 µM, 17.9 µM, 3.41 µM, 5.67 µM and 5.09 µM.
In the same order, the values of `CC(C)CC(NP(=O)(O)OC1OC(C)C(O)C(O)C1O)C(=O)NC(Cc1c[nH]c2ccccc12)C(=O)O` (stereo unspecified) are over 100 µM, over 100 µM, over 100 µM, over 100 µM and over 100 µM.
Consider `Oc1cc(CN2CCOCCOCCOCCOCC2)c(O)cc1CN1CCOCCOCCOCCOCC1`, for which the TGI in the test on CAKI-1 renal was 38.9 µM; with DLD-1 colon, 48.2 µM; in the test on HCC-2998 colon, over 100 µM; with KM20L2 colon, over 100 µM; in the test with LXFL 529 NSCLC it was 44.2 µM; in the test on M19-MEL melanoma, 19.3 µM. Also, the TGI with OVCAR-3 ovarian is over 100 µM; in the test on SNB-78 CNS, over 100 µM; in the test on XF 498 CNS it was 42.5 µM.
As to `CCCCNC(=NCc1ccccc1)NC#N`, the TGI in the test on CAKI-1 renal, in the test on DLD-1 colon, in the test on DMS 273 small cell lung, in the test on HCC-2998 colon, in the test on KM20L2 colon and with LXFL 529 NSCLC was over 100 µM in each case. Further, the TGI with M19-MEL melanoma, with OVCAR-3 ovarian, with SNB-78 CNS and in the test on XF 498 CNS was over 100 µM each time.
As to `CCN(CC)C(=S)SC1C(=O)NC(=O)NC1=O`, the TGI with BT-549 breast, in the test on CAKI-1 renal, in the test with HCC-2998 colon, in the test with MDA-MB-231 breast and in the test on OVCAR-3 ovarian was over 100 µM in each case.
As for `c1ccc(-c2c3c(nc4c2CC[C@H]4NC2=NCCN2)[C@@H](NC2=NCCN2)CC3)cc1`, the TGI in the test on BT-549 breast, with CAKI-1 renal, in the test on HCC-2998 colon, in the test on MDA-MB-231 breast and in the test on OVCAR-3 ovarian was over 100 µM in each case.
As for `CCCCOCOc1ccccc1P1(=O)COc2ccccc2OC1`, the TGI in the test on BT-549 breast, in the test on CAKI-1 renal, in the test on HCC-2998 colon, in the test with MDA-MB-231 breast and in the test on OVCAR-3 ovarian was over 100 µM in each case.

Source of the values: PubChem BioAssay (NCI).
